Assay results published in the pKa sets of Baltruschat and Czodrowski (2020).

SMILES	pKa
CN1CC[C@H](N(C)C(=O)N2CC(c3cc(F)ccc3F)=C[C@@]2(CO)c2ccccc2)[C@H](F)C1	7.6
CCCCNC(=O)NS(=O)(=O)c1ccc(C)cc1	5.3
CS(=O)(=O)Nc1ccc(Nc2c3ccccc3nc3ccc([N+](=O)[O-])cc23)cc1	5.42
COC(=O)c1ccccc1Nc1c2ccccc2nc2ccccc12	6.3
CS(=O)(=O)O.NC(=O)Cc1ccc(Nc2c3ccccc3nc3ccccc23)cc1	7.43
Cc1ccc(N=C2NCCN2)c(Cl)c1	9.41
Nc1ccccn1	6.71
CN(C)CCCNc1c2ccccc2nc2cccc([N+](=O)[O-])c12	6.21
COc1cc(NS(C)(=O)=O)ccc1Nc1c2ccccc2nc2c(OCCCC(N)=O)cccc12	7.36
CNCC[C@@H](Oc1ccccc1C)c1ccccc1	10.1
NC(=O)Cc1ccc(Nc2c3ccccc3nc3ccccc23)cc1	7.43
CN(C)C(=O)C1C2c3ccccc3C(c3ccccc32)C1C(=O)N(C)C (stereo not given)	-1.34
Cc1ccn2c(CC#N)c(C)nc2c1OCc1ccccc1	5.67
CC(C)Oc1ncc(-c2nc(-c3cccc4c3OCCNC4CCCC(=O)O)no2)cc1Cl (stereo not given)	7.98
CN(C)C(=O)Oc1cccc([N+](C)(C)C)c1	19.1
Nc1ccc(Nc2c3ccccc3nc3ccccc23)cc1	8.36
O=[N+]([O-])c1cc(Cl)c(N=C2NCCN2)c(Cl)c1	6.86
CS(=O)(=O)Nc1ccc(Nc2c3ccccc3nc3cc(N)ccc23)cc1	9.8
NCCCF	9.9
CC(C)Oc1ccc(-c2nc(-c3ccc4c(c3)CCN(C(CO)CO)CC4)no2)cc1C#N	7.8
CCc1ncc[nH]1	7.73
COc1cc(NS(C)(=O)=O)ccc1Nc1c2ccccc2nc2cc(I)ccc12	6.77

SMILES	pKa
CNCc1cn(S(=O)(=O)c2cccnc2)c(-c2cccnc2F)c1F	8.54
CCCCc1nc(Cl)c(COC)n1Cc1ccc(NC(=O)c2ccccc2S(=O)(=O)O)cc1	-6.6
Cc1cnc(NCCc2ccccc2)c(=O)n1CC(=O)NCc1ccc(C(=N)N)s1	10.3
CN(C)CCCCc1ccc(C2COC2)cc1	9.9
COc1cc(NS(C)(=O)=O)ccc1Nc1c2ccccc2nc2cc(F)ccc12	7.05
BP(=O)(OC[C@H]1O[C@@H](n2cnc3c(N)nc(SC)nc32)[C@H](O)[C@@H]1O)OP(=O)(O)C(F)(F)P(=O)(O)O (stereo not given in full)	7
CC12CC3CC(C)(C1)CC(N)(C3)C2	10.4
Clc1ccccc1N=C1NCCN1	9.15
COc1cc2nc(N3CCN(C(=O)C4CCCO4)CC3)nc(N)c2cc1OC (stereo not given)	7.1
Cc1nc(N)ncc1CNC(=O)Cn1c(C)cnc(NCC(F)(F)c2ccccc2)c1=O	4.2
O=C(O)c1ccc(-c2ccc(O[C@H]3O[C@H](CO)[C@@H](O)[C@H](O)[C@@H]3O)cc2)cc1	3.88
COc1cc(NS(C)(=O)=O)ccc1Nc1c2ccccc2nc2cc([N+](=O)[O-])ccc12	5.72
COc1cc(NS(C)(=O)=O)ccc1Nc1c2ccccc2nc2cc(C(C)C)ccc12	7.66
O=C(C1CCN(c2ccncn2)CC1)N1CCN(S(=O)(=O)c2ccc(Br)cc2)CC1	6.1
COc1cc(NS(C)(=O)=O)ccc1Nc1c2ccccc2nc2ccc(I)cc12	6.6
Cc1nc2c(/C=C\c3ccccc3)cccn2c1C	7.2
COc1ccc(CCNCCCC(C#N)(c2ccc(OC)c(OC)c2)C(C)C)cc1OC (stereo not given)	9.87
CN(C)CC(F)(F)F	4.8
COc1cc(NS(C)(=O)=O)ccc1Nc1c2ccccc2nc2ccccc12	7.43
COc1cc(NS(C)(=O)=O)ccc1Nc1c2ccccc2nc2c(-c3ccccc3)cccc12	7.02
CCc1ccc2c(Nc3ccc(NS(C)(=O)=O)cc3OC)c3ccccc3nc2c1	7.65
FC1(F)CCNCC1	8.5

SMILES	pKa
Fc1ccc(Nc2c3ccccc3nc3ccccc23)cc1	7.5
O=C1CC2(CCCC2)CC(=O)N1CCCCN1CCN(c2ncccn2)CC1	7.8
Cc1c(-c2noc(-c3ccc(OC(C)C)c(C#N)c3)n2)ccc2c1CCN(C(CO)CO)C2	7.3
CCCS(=O)(=O)Nc1ccc(Nc2c3ccccc3nc3ccccc23)cc1	7.2
Cc1nc(C)nc(N2C[C@@H](C)N(c3ccnc([C@@H](C)O)n3)[C@@H](C)C2)n1	4.8
C[C@]12CC[C@H]3[C@@H](CCC4=CC(=O)CC[C@@]43C)[C@@H]1CC[C@@H]2O	4.48
Nc1ccccc1Nc1c2ccccc2nc2ccccc12	7.87
Cc1cnc(NCCc2ccccc2)c(=O)n1CC(=O)NCc1ccc(C(=N)NO)s1	4.1
CN(C)CCC=C1c2ccccc2CCc2ccccc21	9.4
CO/N=C(\C#N)C1CN2CCC1CC2 (stereo not given)	8.96
CN(C)CCCCc1ccc(C(C)(C)C)cc1	9.9
Br.Oc1noc2c1CNCC2	4.3
Fc1cccc(F)c1N=C1NCCN1	8.18
FC1CCCNC1 (stereo not given)	9.3
Cl.O=C(c1ccc(CN2CCOCC2)cc1)N1CCN(C2CC2)CC1	5.3
Cc1cnc(NCCc2ccccc2)c(=O)n1CC(=O)NC[C@@H]1CNC(N)=N[C@@H]1C	14
Cc1nc2c(OCc3ccccc3)cccn2c1CC#N	5.5
Brc1cc(Br)c(N=C2NCCN2)c(Br)c1	7.46
COc1cc(NS(C)(=O)=O)ccc1Nc1c2ccccc2nc2ccc(F)cc12	6.71
O=[N+]([O-])c1ncc[nH]1	0.81
CC(C)NCC(O)COc1ccc(COCCOC(C)C)cc1 (stereo not given)	9.57
CCN(CC)CCCN1c2cc(F)ccc2CCc2ccc(F)cc21.Cl	7.6

SMILES	pKa
O=C1N=C(O)NC1(c1ccccc1)c1ccccc1	8
CCCCS(=O)(=O)Nc1ccc(Nc2c3ccccc3nc3ccccc23)cc1	7.18
Cc1ccc(NS(=O)(=O)Cc2ccccc2)c(=O)n1CC(=O)NC[C@@H]1CNC(N)=N[C@@H]1C	14
Oc1cc(C2=CCNCC2)on1	9.4
Oc1cc(C2CCNCC2)on1	10.3
CCCn1c(=O)c2nc(-c3ccc(S(=O)(=O)NCCN(C)C)cc3)[nH]c2n(CCC)c1=O	8
O=C(O)CN(CCN(CC(=O)O)CC(=O)O)CCN(CC(=O)O)C(COCc1ccccc1)C(=O)O (stereo not given)	2.07
CCCNC(=O)CN(CCN(CCN(CC(=O)O)CC(=O)O)CC(=O)O)CC(=O)O	1.8
Cc1nc2c(/C=C/c3ccccc3)cccn2c1C	7.2
FC(F)(F)c1c(N2CCC(c3ccccc3)CC2)ccn2c(CC3CC3)nnc12	4.1
CC(CN(C)C)CN1c2ccccc2CCc2ccccc21 (stereo not given)	9.24
Cc1nc2c(/C=C/Cc3ccccc3)cccn2c1N	6.75
OCCN1CCN(CCCN2c3ccccc3Sc3ccc(Cl)cc32)CC1	7.8
COC(=O)C1=C(C)NC(C)=C(C(=O)OCCN(C)Cc2ccccc2)C1c1cccc([N+](=O)[O-])c1 (stereo not given)	7.6
CC(C)(C)NC[C@H](O)COc1nsnc1N1CCOCC1	8.8
COc1cccc(Nc2c3ccccc3nc3ccccc23)c1	7.21
CCS(=O)(=O)c1nc(S(=O)(=O)c2ccc(Cl)cc2)c(N2CCc3ccccc3C2)s1	-8.66
O=S1NC(CCc2ccccc2)=NO1 (stereo not given)	5.23
Cc1nc2c(CCc3ccccc3)cccn2c1CC#N	6
